Laboratory results: the NIST ThermoML archive (doi:10.1021/acs.jced.9b00540)
± gives the expanded uncertainty stated by the source.

Experiment: xn = mol fraction of the nth substance listed
Conditions: Liquid

CCOC(F)(C(F)(F)C(F)(F)C(F)(F)F)C(F)(C(F)(F)F)C(F)(F)F (stereo not given) [2-trifluoromethyl-3-ethoxydodecafluorohexane] + CC(C)OC(C)C
viscosity [mPa·s]
Conditions	x1 = 0.25	x1 = 0.375	x1 = 0.5	x1 = 0.625	x1 = 0.75	x1 = 1
293.15 K, 100 kPa, Capillary tube (Ostwald / Ubbelohde) method	0.483 ± 0.01	0.573 ± 0.012	0.685 ± 0.014	0.818 ± 0.017	0.985 ± 0.021	1.369 ± 0.029
293.15 K, 20000 kPa, Falling or rolling sphere viscometry	0.602 ± 0.013	0.751 ± 0.017	0.939 ± 0.021	1.1 ± 0.024	1.315 ± 0.029	1.894 ± 0.043
293.15 K, 40000 kPa, Falling or rolling sphere viscometry	0.732 ± 0.016	0.944 ± 0.021	1.198 ± 0.026	1.412 ± 0.031	1.727 ± 0.038	2.645 ± 0.059
293.15 K, 60000 kPa, Falling or rolling sphere viscometry	0.883 ± 0.019	1.171 ± 0.026	1.49 ± 0.033	1.802 ± 0.04	2.255 ± 0.05	3.622 ± 0.081
293.15 K, 80000 kPa, Falling or rolling sphere viscometry	1.058 ± 0.023	1.435 ± 0.031	1.82 ± 0.04	2.291 ± 0.05	2.936 ± 0.065	4.894 ± 0.11
293.15 K, 100000 kPa, Falling or rolling sphere viscometry	1.26 ± 0.028	1.741 ± 0.038	2.197 ± 0.048	2.902 ± 0.064	3.814 ± 0.085	6.553 ± 0.14
313.15 K, 100 kPa, Capillary tube (Ostwald / Ubbelohde) method	0.386 ± 0.008	0.441 ± 0.009	0.526 ± 0.011	0.617 ± 0.013	0.735 ± 0.015	0.983 ± 0.021
313.15 K, 20000 kPa, Falling or rolling sphere viscometry	0.476 ± 0.01	0.598 ± 0.013	0.701 ± 0.015	0.821 ± 0.018	0.979 ± 0.022	1.356 ± 0.03
313.15 K, 40000 kPa, Falling or rolling sphere viscometry	0.587 ± 0.013	0.748 ± 0.016	0.894 ± 0.02	1.059 ± 0.023	1.292 ± 0.029	1.869 ± 0.042
313.15 K, 60000 kPa, Falling or rolling sphere viscometry	0.712 ± 0.016	0.917 ± 0.02	1.118 ± 0.024	1.339 ± 0.029	1.668 ± 0.037	2.51 ± 0.056
313.15 K, 80000 kPa, Falling or rolling sphere viscometry	0.853 ± 0.019	1.104 ± 0.024	1.376 ± 0.03	1.669 ± 0.037	2.119 ± 0.047	3.31 ± 0.073
313.15 K, 100000 kPa, Falling or rolling sphere viscometry	1.014 ± 0.022	1.312 ± 0.029	1.677 ± 0.037	2.058 ± 0.045	2.663 ± 0.059	4.307 ± 0.096
333.15 K, 100 kPa, Capillary tube (Ostwald / Ubbelohde) method	0.311 ± 0.007	0.356 ± 0.008	0.416 ± 0.009	0.486 ± 0.01	0.574 ± 0.012	0.739 ± 0.016
333.15 K, 20000 kPa, Falling or rolling sphere viscometry	0.393 ± 0.009	0.488 ± 0.011	0.56 ± 0.012	0.644 ± 0.014	0.754 ± 0.017	1.032 ± 0.023
333.15 K, 40000 kPa, Falling or rolling sphere viscometry	0.491 ± 0.011	0.604 ± 0.013	0.707 ± 0.015	0.826 ± 0.018	0.982 ± 0.022	1.41 ± 0.031
333.15 K, 60000 kPa, Falling or rolling sphere viscometry	0.595 ± 0.013	0.735 ± 0.016	0.875 ± 0.019	1.035 ± 0.023	1.252 ± 0.027	1.87 ± 0.041
333.15 K, 80000 kPa, Falling or rolling sphere viscometry	0.706 ± 0.015	0.884 ± 0.019	1.067 ± 0.023	1.277 ± 0.028	1.574 ± 0.034	2.427 ± 0.053
333.15 K, 100000 kPa, Falling or rolling sphere viscometry	0.822 ± 0.018	1.051 ± 0.023	1.283 ± 0.028	1.557 ± 0.034	1.958 ± 0.043	3.105 ± 0.068
353.15 K, 100 kPa, Capillary tube (Ostwald / Ubbelohde) method	–	–	–	–	0.465 ± 0.01	0.576 ± 0.012
353.15 K, 20000 kPa, Falling or rolling sphere viscometry	0.34 ± 0.007	0.399 ± 0.009	0.442 ± 0.01	0.499 ± 0.011	0.591 ± 0.013	0.799 ± 0.018
353.15 K, 40000 kPa, Falling or rolling sphere viscometry	0.428 ± 0.009	0.508 ± 0.011	0.578 ± 0.013	0.66 ± 0.015	0.773 ± 0.017	1.084 ± 0.024
353.15 K, 60000 kPa, Falling or rolling sphere viscometry	0.517 ± 0.011	0.622 ± 0.014	0.724 ± 0.016	0.836 ± 0.018	0.997 ± 0.022	1.418 ± 0.031
353.15 K, 80000 kPa, Falling or rolling sphere viscometry	0.61 ± 0.013	0.739 ± 0.016	0.879 ± 0.019	1.025 ± 0.022	1.245 ± 0.027	1.808 ± 0.04
353.15 K, 100000 kPa, Falling or rolling sphere viscometry	0.706 ± 0.015	0.855 ± 0.019	1.037 ± 0.022	1.223 ± 0.027	1.504 ± 0.033	2.265 ± 0.049
